Like-named read-outs stand apart in the source and are kept apart here.
Tested on: MRSA COL (MB5393)
Test: TarO Inhibitor/β-Lactam Synergy Assay
Format: cell-based, Staphylococcus aureus
Conditions: 20 hours; for IC95: TarO inhibitor alone, OD600, 95% growth inhibition, read-out: MITC95 TarO inhibitor alone, Bacteria: SA_MB5393; for MITC95 TarO inhibitor + 4 μg/mL IPM; Bacteria: SA_MB5393: in combination with 4 μg/mL imipenem; for MITC95 TarO inhibitor + 4 μg/mL IPM; Bacteria: SA_MB5393 / MITC95 TarO inhibitor + 8 μg/mL DCX; Bacteria: SA_MB5393: OD600; for MITC95 TarO inhibitor + 8 μg/mL DCX; Bacteria: SA_MB5393: in combination with 8 μg/mL dicloxacillin
Description: The TarO inhibitor/β-lactam synergy assay was performed to measure the re-sensitization of methicillin-resistant Staphylococci bacteria (MB5393: MRSA COL) to β-lactam antibiotics by TarO inhibitors. MRSA COL is a hospital-acquired penicillinase-negative clinically isolated strain commonly used in Staphylococcus aureus studies and is fully resistant to the antimicrobial bioactivity of β-lactam antibiotics, including but not limited to imipenem and dicloxacillin. […] MRSA COL is fully refractory to β-lactam antibiotic effect at the current clinical breakpoint concentrations and as such MRSA COL is fully viable at these concentrations.
The β-lactam antibiotic concentration was fixed at the clinical breakpoint (imipenem 4 μg/ml or dicloxacillin 8 μg/ml) and the TarO inhibitors were titrated by 2 fold starting from the highest concentration of 200 μM with final DMSO concentration of 2% in the assay. 5×10^5 colony forming unit of MRSA COL in cation-adjusted Mueller Hinton broth (CAMHB) was then mixed and the assay plate was incubated for 20 hours at 37° C. without shaking. After 20 hours, the optical density at 600 nm (OD600) was read for all wells to determine relative growth of MRSA COL.

CCN(C(=O)CCn1c2ccc(CO)cc2nc1[C@H]1CC[C@H](CC)CC1)C1CCCCC1 [Example 1, N-cyclohexyl-N-ethyl-3-(2-(trans-4-ethylcyclohexyl)-5-(hydroxymethyl)-1H-benzo[d]imidazol-1-yl)propanamide]
IC95 (Staphylococcus aureus): > 200 µM
MITC95 TarO inhibitor + 4 μg/mL IPM; Bacteria: SA_MB5393: 1.82 µM
MITC95 TarO inhibitor + 8 μg/mL DCX; Bacteria: SA_MB5393: 6.25 µM

CCN(C(=O)CCn1c2cccnc2nc1[C@H]1CC[C@H](CC)CC1)C1CCCCC1 [Example 2, N-cyclohexyl-N-ethyl-3-[2-(trans-4-ethylcyclohexyl)-1H-imidazo[4,5-b]pyridin-1-yl]propanamide]
IC95 (Staphylococcus aureus): > 200 µM
MITC95 TarO inhibitor + 4 μg/mL IPM; Bacteria: SA_MB5393: 1.88 µM
MITC95 TarO inhibitor + 8 μg/mL DCX; Bacteria: SA_MB5393: 18.75 µM

CCN(C(=O)CCn1c2cc(C#N)ccc2nc1[C@H]1CC[C@H](CC)CC1)C1CCCCC1 [Example 3, 3-[6-cyano-2-(trans-4-ethylcyclohexyl)-1H-benzimidazol-1-yl]-N-cyclohexyl-N-ethylpropanamide]
IC95 (Staphylococcus aureus): > 200 µM
MITC95 TarO inhibitor + 4 μg/mL IPM; Bacteria: SA_MB5393: 4.17 µM
MITC95 TarO inhibitor + 8 μg/mL DCX; Bacteria: SA_MB5393: 20.83 µM

CCN(C(=O)CCn1c2cnccc2nc1[C@H]1CC[C@H](CC)CC1)C1CCCCC1 [Example 4, N-cyclohexyl-N-ethyl-3-[2-(trans-4-ethylcyclohexyl)-3H-imidazo[4,5-c]pyridin-3-yl]propanamide]
IC95 (Staphylococcus aureus): > 200 µM
MITC95 TarO inhibitor + 4 μg/mL IPM; Bacteria: SA_MB5393: 4.17 µM
MITC95 TarO inhibitor + 8 μg/mL DCX; Bacteria: SA_MB5393: 41.67 µM

CCN(C(=O)CCn1c2ccc(Br)cc2nc1[C@H]1CC[C@H](CC)CC1)C1CCCCC1 [Example 5, 3-[5-bromo-2-(trans-4-ethylcyclohexyl)-1H-benzimidazol-1-yl]-N-cvclohexyl-N-ethylpropanamide]
IC95 (Staphylococcus aureus): > 200 µM
MITC95 TarO inhibitor + 4 μg/mL IPM; Bacteria: SA_MB5393: 0.01 µM
MITC95 TarO inhibitor + 8 μg/mL DCX; Bacteria: SA_MB5393: 0.02 µM

CCN(C(=O)CCn1c2cc(F)ccc2nc1[C@H]1CC[C@H](CC)CC1)C1CCCCC1 [Example 6, N-cyclohexyl-N-ethyl-3-(2-(trans-4-ethvlcyclohexyl)-6-fluoro-1H-benzo[d]imidazol-1-yl)propanamide]
IC95 (Staphylococcus aureus): > 200 µM
MITC95 TarO inhibitor + 4 μg/mL IPM; Bacteria: SA_MB5393: 0.13 µM
MITC95 TarO inhibitor + 8 μg/mL DCX; Bacteria: SA_MB5393: 0.59 µM

CCN(C(=O)CCn1c2ccc(C(F)(F)F)cc2nc1[C@H]1CC[C@H](CC)CC1)C1CCCCC1 [Example 7, N-cyclohexyl-N-ethyl-3-[2-(trans-4-ethylcyclohexyl)-5-(trifluoromethyl)-1H-benzimidazol-1-yl]propanamide]
IC95 (Staphylococcus aureus): > 200 µM
MITC95 TarO inhibitor + 4 μg/mL IPM; Bacteria: SA_MB5393: 0.20 µM
MITC95 TarO inhibitor + 8 μg/mL DCX; Bacteria: SA_MB5393: 0.20 µM

CCN(C(=O)CCn1c2cc(Br)ccc2nc1[C@H]1CC[C@H](CC)CC1)C1CCCCC1 [Example 8, 3-[6-bromo-2-(trans-4-ethylcyclohexyl)-1H-benzimidazol-1-yl]-N-cyclohexyl-N-ethylpropanamide]
IC95 (Staphylococcus aureus): > 200 µM
MITC95 TarO inhibitor + 4 μg/mL IPM; Bacteria: SA_MB5393: 0.06 µM
MITC95 TarO inhibitor + 8 μg/mL DCX; Bacteria: SA_MB5393: 0.22 µM

CCN(C(=O)CCn1c2cccc(F)c2nc1[C@H]1CC[C@H](CC)CC1)C1CCCCC1 [Example 9, N-cyclohexyl-N-ethyl-3-[2-(trans-4-ethylcyclohexyl)-4-fluoro-1H-benzimidazol-1-yl]propanamide]
IC95 (Staphylococcus aureus): > 200 µM
MITC95 TarO inhibitor + 4 μg/mL IPM; Bacteria: SA_MB5393: 0.13 µM
MITC95 TarO inhibitor + 8 μg/mL DCX; Bacteria: SA_MB5393: 0.79 µM

CCN(C(=O)CCn1c2ccc(F)cc2nc1[C@H]1CC[C@H](CC)CC1)C1CCCCC1 [Example 10, N-cyclohexyl-N-ethyl-3-[2-(trans-4-ethylcyclohexyl)-5-fluoro-1H-benzimidazol-1-yl]propanamide]
IC95 (Staphylococcus aureus): > 200 µM
MITC95 TarO inhibitor + 4 μg/mL IPM; Bacteria: SA_MB5393: 0.004 µM
MITC95 TarO inhibitor + 8 μg/mL DCX; Bacteria: SA_MB5393: 0.03 µM

CCN(C(=O)CCn1c2c(F)cccc2nc1[C@H]1CC[C@H](CC)CC1)C1CCCCC1 [Example 11, N-cyclohexyl-N-ethyl-3-[2-(trans-4-ethylcyclohexyl)-7-fluoro-1H-benzimidazol-1-yl]propanamide]
IC95 (Staphylococcus aureus): > 200 µM
MITC95 TarO inhibitor + 4 μg/mL IPM; Bacteria: SA_MB5393: 0.40 µM
MITC95 TarO inhibitor + 8 μg/mL DCX; Bacteria: SA_MB5393: 1.04 µM

CCN(C(=O)CCn1c(C2CCCN(C(=O)OC(C)(C)C)C2)nc2cc(F)ccc21)C1CCCCC1 (stereo not drawn) [Example 12, tert-butyl 3-(1-{3-[cyclohexyl(ethyl)amino]-3-oxopropyl}-5-fluoro-1H-benzimidazol-2-yl)piperidine-1-carboxylate]
IC95 (Staphylococcus aureus): > 200 µM
MITC95 TarO inhibitor + 4 μg/mL IPM; Bacteria: SA_MB5393: 0.50 µM
MITC95 TarO inhibitor + 8 μg/mL DCX; Bacteria: SA_MB5393: 1.09 µM

CCOC(=O)N1CCCC(c2nc3cc(F)ccc3n2CCC(=O)N(CC)C2CCCCC2)C1 (stereo not drawn) [Example 13, Ethyl 3-(1-{3-[cyclohexyl(ethyl)amino]-3-oxopropyl}-5-fluoro-1H-benzimidazol-2-yl)piperidine-1-carboxylate]
IC95 (Staphylococcus aureus): > 200 µM
MITC95 TarO inhibitor + 4 μg/mL IPM; Bacteria: SA_MB5393: 0.35 µM
MITC95 TarO inhibitor + 8 μg/mL DCX; Bacteria: SA_MB5393: 2.19 µM

CCN(C(=O)CCn1c2cc(CO)ccc2nc1[C@H]1CC[C@H](CC)CC1)C1CCCCC1 [Example 14, N-cyclohexyl-N-ethyl-3-[2-(trans-4-ethylcyclohexyl)-6-(hydroxymethyl)-1H-benzimidazol-1-yl]propanamide]
IC95 (Staphylococcus aureus): > 200 µM
MITC95 TarO inhibitor + 4 μg/mL IPM; Bacteria: SA_MB5393: 0.52 µM
MITC95 TarO inhibitor + 8 μg/mL DCX; Bacteria: SA_MB5393: 3.13 µM

CCN(C(=O)CCn1c(C2CCCN(C(=O)OC(C)(C)C)C2)nc2cc(F)ccc21)C1CCCCC1 (stereo not drawn) [Example 15, tert-butyl 3-(1-{3-[cyclohexyl(ethyl)amino]-3-oxopropyl}-5-fluoro-1H-benzimidazol-2-yl)piperidine-1-carboxylate]
IC95: >200 µM
MITC95 TarO inhibitor + 4 μg/mL IPM; Bacteria: SA_MB5393: 0.52 µM
MITC95 TarO inhibitor + 8 μg/mL DCX; Bacteria: SA_MB5393: 4.17 µM

CCN(C(=O)CCn1c2ccc(OC)cc2nc1[C@H]1CC[C@H](CC)CC1)C1CCCCC1 [Example 16, N-cyclohexyl-N-ethyl-3-[2-(trans-4-ethylcyclohexyl)-5-methoxy-1H-benzimidazol-1-yl]propanamide]
IC95 (Staphylococcus aureus): > 200 µM
MITC95 TarO inhibitor + 4 μg/mL IPM; Bacteria: SA_MB5393: 1.04 µM
MITC95 TarO inhibitor + 8 μg/mL DCX; Bacteria: SA_MB5393: 14.58 µM

CCN(C(=O)CCn1c2ccncc2nc1[C@H]1CC[C@H](CC)CC1)C1CCCCC1 [Example 17, N-cyclohexyl-N-ethyl-3-[2-(trans-4-ethylcyclohexyl)-1H-imidazo[4,5-c]pyridin-1-yl]propanamide]
IC95 (Staphylococcus aureus): > 200 µM
MITC95 TarO inhibitor + 4 μg/mL IPM; Bacteria: SA_MB5393: 0.98 µM
MITC95 TarO inhibitor + 8 μg/mL DCX; Bacteria: SA_MB5393: 6.25 µM

CCOC(=O)N1CCCC(c2nc3cc(F)ccc3n2CCC(=O)N(CC)C2CCCCC2)C1 (stereo not drawn) [Example 18, Ethyl 3-(1-{3-[cyclohexyl(ethyl)amino]-3-oxopropyl}-5-fluoro-1H-benzimidazol-2-yl)piperidine-1-carboxylate]
IC95: >200 µM
MITC95 TarO inhibitor + 4 μg/mL IPM; Bacteria: SA_MB5393: 1.09 µM
MITC95 TarO inhibitor + 8 μg/mL DCX; Bacteria: SA_MB5393: 23.75 µM

CCN(C(=O)CCn1c2ncccc2nc1[C@H]1CC[C@H](CC)CC1)C1CCCCC1 [Example 19, N-cyclohexyl-N-ethyl-3-[2-(trans-4-ethylcyclohexyl)-3H-imidazo[4,5-b]pyridin-3-yl]propanamide]
IC95 (Staphylococcus aureus): > 200 µM
MITC95 TarO inhibitor + 4 μg/mL IPM; Bacteria: SA_MB5393: 1.95 µM
MITC95 TarO inhibitor + 8 μg/mL DCX; Bacteria: SA_MB5393: 28.13 µM

CCN(C(=O)CCn1c2cccc(C(F)F)c2nc1[C@H]1CC[C@H](C)CC1)C1CCCCC1 [Example 20, N-cyclohexyl-3-[4-(difluoromethyl)-2-(trans-4-methylcyclohexyl)-1H-benzimidazol-1-yl]-N-ethylpropanamide]
IC95 (Staphylococcus aureus): 100 µM
MITC95 TarO inhibitor + 4 μg/mL IPM; Bacteria: SA_MB5393: 1.56 µM
MITC95 TarO inhibitor + 8 μg/mL DCX; Bacteria: SA_MB5393: 12.50 µM

CCN(C(=O)CCn1c(C2CCN(C(=O)OC(C)(C)C)C2)nc2cc(F)ccc21)C1CCCCC1 (stereo not drawn) [Example 21, tert-butyl 3-(1-{3-[cyclohexyl(ethyl)amino]-3-oxopropyl}-5-fluoro-1H-benzimidazol-2-yl)pyrrolidine-1-carboxylate]
IC95 (Staphylococcus aureus): > 200 µM
MITC95 TarO inhibitor + 4 μg/mL IPM; Bacteria: SA_MB5393: 0.78 µM
MITC95 TarO inhibitor + 8 μg/mL DCX; Bacteria: SA_MB5393: 13.54 µM
